Reference: patent publication US20260262643A1, “HERBICIDAL BENZOXAZINES” (FMC CORPORATION, priority 2022, published 2026)

What was measured:
[1] = tested on: rice; assay: Test B flooded paddy test; assay type: in vivo, Oryza sativa; conditions: 250 g ai/ha, Flood, 13 days, 0 to 100 scale (0 no effect, 100 complete control)
Method in brief: (§1)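 2-leaf stage; pots flooded 3 cm over soil; compound dosed into paddy water; depth kept constant. Greenhouse, 13 d. Visual rating vs controls, 0 (no effect)–100 (complete control). Dash = no result.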

[2] = tested on: blackgrass; assay: Test A postemergence; assay type: in vivo, Alopecurus myosuroides
Method in brief: (§2)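 Weeds and crops in loam–sand blend were sprayed preemergence onto soil or postemergence at 2–10 cm (one- to two-leaf stage). Test chemicals were in a non-phytotoxic solvent with surfactant. After 10 days in the greenhouse, injury was rated visually against untreated controls on a 0 (no effect) to 100 (complete control) scale.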

[3] = tested on: ragweed; assay: Test A preemergence; assay type: in vivo, Ambrosia artemisiifolia
Method in brief: as §2

[4] = tested on: corn; assay: Test A postemergence; assay type: in vivo, Zea mays
Method in brief: as §2

[5] = tested on: sedge, umbrella; assay: Test B flooded paddy test; assay type: in vivo, Cyperus difformis; conditions: 250 g ai/ha, Flood, 13 days, 0 to 100 scale (0 no effect, 100 complete control)
Method in brief: as §1

[6] = tested on: ragweed; assay: Test A postemergence; assay type: in vivo, Ambrosia artemisiifolia
Method in brief: as §2

[7] = tested on: galium; assay: Test A postemergence; assay type: in vivo, Galium aparine
Method in brief: as §2

[8] = tested on: foxtail, giant; assay: Test A preemergence; assay type: in vivo, Setaria faberi
Method in brief: as §2

[9] = tested on: ryegrass, Italian; assay: Test A preemergence; assay type: in vivo, Lolium multiflorum
Method in brief: as §2

[10] = tested on: Pigweed, Redroot; assay: Test A postemergence; assay type: in vivo, Amaranthus retroflexus
Excerpt: (§3) Seeds of plant species selected from barnyardgrass (Echinochloa crusgalli), blackgrass (Alopecurus myosuroides), corn (Zea mays), foxtail, giant (giant foxtail, Setaria faberi), goosegrass (Eleusine indica), kochia (Bassia scoparia), oat, wild (wild oat, Avena fatua), pigweed, palmer (palmer amaranth, palmer pigweed, Amaranthus palmeri), Pigweed, Redroot (redroot pigweed, Amaranthus retroflexus), ragweed (common ragweed, Ambrosia artemisiifolia), ryegrass, Italian (italian ryegrass, Lolium multiflorum), soybean (Glycine max), and wheat (Triticum aestivum) were planted into a blend of loam soil and sand and treated preemergence with a directed soil spray using test chemicals formulated in a non-phytotoxic solvent mixture which included a surfactant. At the same time, plants selected from these crops and weed species and also galium (catchweed bedstraw, Galium aparine) and horseweed (Erigeron canadensis) were planted in pots containing the same blend of loam soil and sand and treated with postemergence applications of test chemicals formulated in the same manner. Plants ranged in height from 2 to 10 cm and were in the one- to two-leaf stage for the postemergence treatment. Treated plants and untreated controls were maintained in a greenhouse for 10 days, after which time all treated plants were compared to untreated controls and visually evaluated for injury. Plant response ratings, summarized in Table A, are based on a 0 to 100 scale where 0 is no effect and 100 is complete control. A dash (-) response means no test result.

[11] = tested on: wheat; assay: Test A postemergence; assay type: in vivo, Triticum aestivum
Method in brief: as §2

[12] = tested on: barnyardgrass; assay: Test A preemergence; assay type: in vivo, Echinochloa crusgalli
Method in brief: as §2

[13] = tested on: barnyardgrass; assay: Test A postemergence; assay type: in vivo, Echinochloa crusgalli
Method in brief: as §2

[14] = tested on: kochia; assay: Test A postemergence; assay type: in vivo, Bassia scoparia
Method in brief: as §2

[15] = tested on: ryegrass, Italian; assay: Test A postemergence; assay type: in vivo, Lolium multiflorum
Method in brief: as §2

[16] = tested on: kochia; assay: Test A preemergence; assay type: in vivo, Bassia scoparia
Method in brief: as §2

[17] = tested on: foxtail, giant; assay: Test A postemergence; assay type: in vivo, Setaria faberi
Method in brief: as §2

[18] = tested on: ducksalad; assay: Test B flooded paddy test; assay type: in vivo, Heteranthera limosa; conditions: 250 g ai/ha, Flood, 13 days, 0 to 100 scale (0 no effect, 100 complete control)
Method in brief: as §1

[19] = tested on: Pigweed, Redroot; assay: Test A preemergence; assay type: in vivo, Amaranthus retroflexus
Excerpt: as §3

[20] = tested on: barnyardgrass; assay: Test B flooded paddy test; assay type: in vivo, Echinochloa crus-galli; conditions: 250 g ai/ha, Flood, 13 days, 0 to 100 scale (0 no effect, 100 complete control)
Method in brief: as §1

[21] = 1000 g ai/ha, Postemergence, 0 to 100 scale
[22] = 1000 g ai/ha, 0 to 100 scale (0 no effect, 100 complete control), 10 days
[23] = 125 g ai/ha, postemergence, 10 days, visual injury, 0 to 100 scale (0 no effect, 100 complete control)
[24] = 500 g ai/ha, Postemergence, 0 to 100 scale
[25] = 125 g ai/ha, visual injury after 10 days, 0 to 100 scale, 0 is no effect, 100 is complete control
[26] = 500 g ai/ha, 0 to 100 scale (0 no effect, 100 complete control), 10 days

C[C@H]1CN(C(=O)c2cccc(-n3cncn3)c2)c2cccc(Cl)c2O1 [Compound 18, [(2S)-8-Chloro-2,3-dihydro-2-methyl-4H-1,4-benzoxazin-4-yl][3-(1H-1,2,4-triazol-1-yl)phenyl]methanone]
plant injury at 250 g/ha ([1]; Oryza sativa, 312 h, read-out: Plant response rating, Rice): 0%
pest or weed control at 1000 g/ha ([2]; Alopecurus myosuroides, post-emergence, 240 h, 1000 g ai/ha, Postemergence, 0 to 100 scale, read-out: Plant response rating, Blackgrass): 70%
pest or weed control at 1000 g/ha ([3]; Ambrosia artemisiifolia, pre-emergence, 240 h, 1000 g ai/ha, 0 to 100 scale (0 no effect, 100 complete control), 10 days, read-out: Plant response rating, Ragweed): 80%
Corn plant response rating (crop injury, 0 = no effect, 100 = complete kill) at 1000 g/ha ([4]; Zea mays, post-emergence, 240 h, 1000 g ai/ha, Postemergence, 0 to 100 scale): 40%
pest or weed control at 250 g/ha ([5]; Cyperus difformis, 312 h, read-out: Plant response rating, Sedge, Umbrella): 0%
pest or weed control at 1000 g/ha ([6]; Ambrosia artemisiifolia, post-emergence, 240 h, 1000 g ai/ha, Postemergence, 0 to 100 scale, read-out: Plant response rating, Ragweed): 20%
pest or weed control at 1000 g/ha ([7]; Galium, post-emergence, 240 h, 1000 g ai/ha, Postemergence, 0 to 100 scale, read-out: Plant response rating, Galium): 90%
pest or weed control at 1000 g/ha ([8]; Setaria faberi, pre-emergence, 240 h, 1000 g ai/ha, 0 to 100 scale (0 no effect, 100 complete control), 10 days, read-out: Plant response rating, Foxtail, Giant): 100%
pest or weed control at 1000 g/ha ([9]; Lolium multiflorum, pre-emergence, 240 h, 1000 g ai/ha, 0 to 100 scale (0 no effect, 100 complete control), 10 days, read-out: Plant response rating, Ryegrass, Italian): 90%
Plant response rating, Pigweed, Redroot [10, 21]: 40
plant injury at 1000 g/ha ([11]; Triticum aestivum, post-emergence, 240 h, 1000 g ai/ha, Postemergence, 0 to 100 scale, read-out: Plant response rating, Wheat): 0%
Plant response rating, Barnyardgrass [12, 22]: 90
Plant response rating, Barnyardgrass [13, 21]: 70
pest or weed control at 1000 g/ha ([14]; Bassia scoparia, post-emergence, 240 h, 1000 g ai/ha, Postemergence, 0 to 100 scale, read-out: Plant response rating, Kochia): 50%
pest or weed control at 1000 g/ha ([15]; Lolium multiflorum, post-emergence, 240 h, 1000 g ai/ha, Postemergence, 0 to 100 scale, read-out: Plant response rating, Ryegrass, Italian): 80%
pest or weed control at 1000 g/ha ([16]; Bassia scoparia, pre-emergence, 240 h, 1000 g ai/ha, 0 to 100 scale (0 no effect, 100 complete control), 10 days, read-out: Plant response rating, Kochia): 70%
pest or weed control at 1000 g/ha ([17]; Setaria faberi, post-emergence, 240 h, 1000 g ai/ha, Postemergence, 0 to 100 scale, read-out: Plant response rating, Foxtail, Giant): 90%
pest or weed control at 250 g/ha ([18]; Heteranthera limosa, 312 h, read-out: Plant response rating, Ducksalad): 0%
Plant response rating, Pigweed, Redroot [19, 22]: 100
pest or weed control at 250 g/ha ([20]; Echinochloa crus-galli, 312 h, read-out: Plant response rating, Barnyardgrass): 0%

CCC1CN(C(=O)c2cccc(-n3cncn3)c2)c2cccc(Cl)c2O1 (racemic) [Compound 7]
Plant response rating, Rice [1]: 0
Plant response rating, Blackgrass [2, 23]: 0
Plant response rating, Blackgrass [2, 24]: 30
Plant response rating, Ragweed [3, 25]: 0
Plant response rating, Ragweed [3, 26]: 0
Plant response rating, Corn [4, 23]: 0
Plant response rating, Corn [4, 24]: 0
Plant response rating, Sedge, Umbrella [5]: 0
Plant response rating, Ragweed [6, 23]: 0
Plant response rating, Ragweed [6, 24]: 0
Plant response rating, Galium [7, 23]: 0
Plant response rating, Galium [7, 24]: 60
Plant response rating, Foxtail, Giant [8, 25]: 10
Plant response rating, Foxtail, Giant [8, 26]: 80
Plant response rating, Ryegrass, Italian [9, 25]: 50
Plant response rating, Ryegrass, Italian [9, 26]: 50
Plant response rating, Pigweed, Redroot [10, 23]: 0
Plant response rating, Pigweed, Redroot [10, 24]: 30
Plant response rating, Wheat [11, 23]: 30
Plant response rating, Wheat [11, 24]: 40
Plant response rating, Barnyardgrass [12, 25]: 0
Plant response rating, Barnyardgrass [12, 26]: 0
Plant response rating, Barnyardgrass [13, 23]: 10
Plant response rating, Barnyardgrass [13, 24]: 20
Plant response rating, Kochia [14, 23]: 0
Plant response rating, Kochia [14, 24]: 20
Plant response rating, Ryegrass, Italian [15, 23]: 0
Plant response rating, Ryegrass, Italian [15, 24]: 0
Plant response rating, Kochia [16, 25]: 40
Plant response rating, Kochia [16, 26]: 80
Plant response rating, Foxtail, Giant [17, 23]: 10
Plant response rating, Foxtail, Giant [17, 24]: 20
Plant response rating, Ducksalad [18]: 0
Plant response rating, Pigweed, Redroot [19, 25]: 0
Plant response rating, Pigweed, Redroot [19, 26]: 40
Plant response rating, Barnyardgrass [20]: 0
